Source: ChEMBL document CHEMBL1201861, “Genomics of Drug Sensitity in Cancer screening data, Wellcome Trust Sanger Institute”

Columns and labels:
GDM-1 = test: cells; type: functional, cell-based, Homo sapiens; details: Homo sapiens, GDM-1;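 note: cell viability readout used to measure growth inhibition of human GDM-1 cells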
Description: SANGER: Inhibition of human GDM-1 cell growth in a cell viability assay.

LU-165 = test: cells; type: functional, cell-based, Homo sapiens; details: Homo sapiens, LU-165
Description: SANGER: Inhibition of human LU-165 cell growth in a cell viability assay.

BC1 cell line = test: SANGER: Inhibition of human BC-1 cell growth in a cell viability assay.; type: functional, cell-based; details: Homo sapiens, BC1
NCI-H524 = test: cells; type: functional, cell-based, Homo sapiens; details: Homo sapiens, NCI-H524;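 note: growth inhibition of human NCI-H524 cells, read out through a cell viability assay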
Description: SANGER: Inhibition of human NCI-H524 cell growth in a cell viability assay.

ARH-77 = test: cells; type: functional, cell-based, Homo sapiens; details: Homo sapiens, ARH-77;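 note: growth inhibition of ARH-77 cells, read out by a cell viability assay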
Description: SANGER: Inhibition of human ARH-77 cell growth in a cell viability assay.

SCLC-21H = test: cells; type: functional, cell-based, Homo sapiens; details: Homo sapiens, SCLC-21H;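 note: growth inhibition of cultured human SCLC-21H cells, read out with a cell viability assay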
Description: SANGER: Inhibition of human SCLC-21H cell growth in a cell viability assay.

NCI-H345 = test: cells; type: functional, cell-based, Homo sapiens; details: Homo sapiens, NCI-H345;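 note: growth inhibition of NCI-H345 cells measured with a cell viability assay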
Description: SANGER: Inhibition of human NCI-H345 cell growth in a cell viability assay.

SIG-M5 = test: cells; type: functional, cell-based, Homo sapiens; details: Homo sapiens, SIG-M5;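 note: cell viability assay read-out, measuring how strongly growth of cultured human SIG-M5 cells is inhibited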
Description: SANGER: Inhibition of human SIG-M5 cell growth in a cell viability assay.

RL95-2 = test: cells; type: functional, cell-based; details: Homo sapiens;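 note: RL95-2 growth inhibition determined through a cell viability readout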
Description: SANGER: Inhibition of human RL95-2 cell growth in a cell viability assay.

L-540 = test: cells; type: functional, cell-based, Homo sapiens; details: Homo sapiens, L-540;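 note: growth inhibition of the human L-540 cell line, read out with a viability assay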
Description: SANGER: Inhibition of human L-540 cell growth in a cell viability assay.

RPMI-6666 = test: cells; type: functional, cell-based, Homo sapiens; details: Homo sapiens, RPMI-6666
Description: SANGER: Inhibition of human RPMI-6666 cell growth in a cell viability assay.

TE-15 = test: cells; type: functional, cell-based, Homo sapiens; details: Homo sapiens, TE-15;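 note: cell viability readout of growth inhibition in TE-15 cells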
Description: SANGER: Inhibition of human TE-15 cell growth in a cell viability assay.

NCI-H187 = test: cells; type: functional, cell-based, Homo sapiens; details: Homo sapiens, NCI-H187;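 note: growth inhibition of NCI-H187 cells, read out as cell viability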
Description: SANGER: Inhibition of human NCI-H187 cell growth in a cell viability assay.

CMK = test: cells; type: functional, cell-based, Homo sapiens; details: Homo sapiens, CMK;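 note: growth inhibition of CMK cells, read out as cell viability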
Description: SANGER: Inhibition of human CMK cell growth in a cell viability assay.

BC-3 = test: cells; type: functional, cell-based, Homo sapiens; details: Homo sapiens, BC-3;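 note: cell viability assay measuring growth inhibition of human BC-3 cells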
Description: SANGER: Inhibition of human BC-3 cell growth in a cell viability assay.

A673 = test: cells; type: functional, cell-based, Homo sapiens; details: Homo sapiens, A673;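 note: growth inhibition of human A673 cells, read out through a cell viability assay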
Description: SANGER: Inhibition of human A673 cell growth in a cell viability assay.

MKN-28 = test: cells; type: functional, cell-based, Homo sapiens; details: Homo sapiens, MKN-28;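 note: cell viability assay read-out, IC50 reflects suppression of growth of human MKN-28 cells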
Description: SANGER: Inhibition of human MKN28 cell growth in a cell viability assay.

NCI-H460 = test: cells; type: functional, cell-based, Homo sapiens; details: Homo sapiens, NCI-H460;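 note: cell viability assay scoring growth inhibition of human NCI-H460 cells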
Description: SANGER: Inhibition of human NCI-H460 cell growth in a cell viability assay.

M059J = test: cells; type: functional, cell-based, Homo sapiens; details: Homo sapiens, M059J;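 note: growth inhibition of M059J cells, read out with a cell viability assay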
Description: SANGER: Inhibition of human M059J cell growth in a cell viability assay.

EPLC-272H = test: cells; type: functional, cell-based, Homo sapiens; details: Homo sapiens, EPLC-272H
Description: SANGER: Inhibition of human EPLC-272H cell growth in a cell viability assay.

CAL-12T = test: cells; type: functional, cell-based, Homo sapiens; details: Homo sapiens, CAL-12T;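 note: growth inhibition of human CAL-12T cells, read out with a cell viability assay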
Description: SANGER: Inhibition of human CAL-12T cell growth in a cell viability assay.

GCT = test: cells; type: functional, cell-based, Homo sapiens; details: Homo sapiens, GCT;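 note: GCT cell line proliferation inhibition, read out with a cell viability assay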
Description: SANGER: Inhibition of human GCT cell growth in a cell viability assay.

PANC-03-27 = test: cells; type: functional, cell-based, Homo sapiens; details: Homo sapiens, PANC-03-27
Description: SANGER: Inhibition of human PANC-03-27 cell growth in a cell viability assay.

CAKI-1 = test: cells; type: functional, cell-based, Homo sapiens; details: Homo sapiens, CAKI-1;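 note: growth inhibition of CAKI-1 cells, measured by a cell viability assay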
Description: SANGER: Inhibition of human CAKI-1 cell growth in a cell viability assay.

NCI-H1793 = test: cells; type: functional, cell-based, Homo sapiens; details: Homo sapiens, NCI-H1793;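 note: cell growth inhibition, read out by a cell viability assay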
Description: SANGER: Inhibition of human NCI-H1793 cell growth in a cell viability assay.

BT-20 = test: cells; type: functional, cell-based, Homo sapiens; details: Homo sapiens, BT-20;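 note: cell viability assay measuring suppression of growth in human BT-20 cells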
Description: SANGER: Inhibition of human BT-20 cell growth in a cell viability assay.

NCI-H650 = test: cells; type: functional, cell-based, Homo sapiens; details: Homo sapiens, NCI-H650;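 note: growth inhibition of NCI-H650 cells, read out by a viability assay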
Description: SANGER: Inhibition of human NCI-H650 cell growth in a cell viability assay.

C3A = test: cells; type: functional, cell-based, Homo sapiens; details: Homo sapiens, C3A;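 note: growth inhibition of C3A human cells, quantified with a cell viability readout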
Description: SANGER: Inhibition of human C3A cell growth in a cell viability assay.

OVCAR-5 = test: cells; type: functional, cell-based, Homo sapiens; details: Homo sapiens, OVCAR-5;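 note: growth inhibition of human OVCAR-5 cells, read out with a cell viability assay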
Description: SANGER: Inhibition of human OVCAR-5 cell growth in a cell viability assay.

SW626 = test: cells; type: functional, cell-based, Homo sapiens; details: Homo sapiens, SW626;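 note: growth inhibition of SW626 cells, measured with a cell viability assay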
Description: SANGER: Inhibition of human SW626 cell growth in a cell viability assay.

SK-N-AS = test: cells; type: functional, cell-based, Homo sapiens; details: Homo sapiens, SK-N-AS;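 note: growth inhibition of human SK-N-AS cells, measured with a cell viability assay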
Description: SANGER: Inhibition of human SK-N-AS cell growth in a cell viability assay.

U-251 = test: cells; type: functional, cell-based, Homo sapiens; details: Homo sapiens, U-251;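 note: growth inhibition of human U-251 cells, read out through a cell viability assay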
Description: SANGER: Inhibition of human U251 cell growth in a cell viability assay.

DBTRG-05MG = test: cells; type: functional, cell-based, Homo sapiens; details: Homo sapiens, DBTRG-05MG;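 note: cell viability assay measuring growth inhibition of human DBTRG-05MG cells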
Description: SANGER: Inhibition of human DBTRG-05MG cell growth in a cell viability assay.

NCI-H2030 = test: cells; type: functional, cell-based, Homo sapiens; details: Homo sapiens, NCI-H2030;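 note: growth inhibition of human NCI-H2030 cells, read out by a cell viability assay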
Description: SANGER: Inhibition of human NCI-H2030 cell growth in a cell viability assay.

EW-22 = test: cells; type: functional, cell-based, Homo sapiens; details: Homo sapiens, EW-22;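 note: growth inhibition of the EW-22 cell line, measured with a cell viability readout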
Description: SANGER: Inhibition of human EW-22 cell growth in a cell viability assay.

SW780 = test: cells; type: functional, cell-based, Homo sapiens; details: Homo sapiens, SW780;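 note: growth inhibition of the cells, read out with a cell viability assay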
Description: SANGER: Inhibition of human SW780 cell growth in a cell viability assay.

U2OS = test: cells; type: functional, cell-based, Homo sapiens, U-2-OS; details: Homo sapiens, U2OS;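 note: growth inhibition of human U-2-OS cells, determined with a cell viability assay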
Description: SANGER: Inhibition of human U-2-OS cell growth in a cell viability assay.

LK-2 = test: cells; type: functional, cell-based, Homo sapiens; details: Homo sapiens, LK-2;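 note: growth inhibition of LK-2 cells, read out with a viability assay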
Description: SANGER: Inhibition of human LK-2 cell growth in a cell viability assay.

SW13 = test: cells; type: functional, cell-based, Homo sapiens; details: Homo sapiens, SW13;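 note: IC50 is inhibition of SW13 cell growth, read out with a cell viability assay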
Description: SANGER: Inhibition of human SW13 cell growth in a cell viability assay.

SJRH30 = test: cells; type: functional, cell-based, Homo sapiens; details: Homo sapiens, SJRH30;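 note: growth inhibition of human SJRH30 cells, read out with a cell viability assay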
Description: SANGER: Inhibition of human SJRH30 cell growth in a cell viability assay.

SKG-IIIa = test: cells; type: functional, cell-based, Homo sapiens; details: Homo sapiens, SKG-IIIa;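 note: cell growth inhibition, read out with a cell viability assay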
Description: SANGER: Inhibition of human SKG-IIIa cell growth in a cell viability assay.

T-24 = test: cells; type: functional, cell-based, Homo sapiens; details: Homo sapiens, T-24;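 note: growth inhibition of T-24 cells, read out with a cell viability assay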
Description: SANGER: Inhibition of human T-24 cell growth in a cell viability assay.

KYSE-70 cell line = test: cells; type: functional, cell-based, Homo sapiens; details: Homo sapiens, KYSE-70;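 note: cell viability assay read-out, with IC50 expressing suppression of KYSE-70 cell growth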
Description: SANGER: Inhibition of human KYSE-70 cell growth in a cell viability assay.

SW1088 = test: cells; type: functional, cell-based, Homo sapiens; details: Homo sapiens, SW1088;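 note: growth inhibition of human SW1088 cells, read out by a cell viability assay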
Description: SANGER: Inhibition of human SW1088 cell growth in a cell viability assay.

Daoy = test: cells; type: functional, cell-based, Homo sapiens; details: Homo sapiens, Daoy;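 note: daoy cell growth inhibition, read out as cell viability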
Description: SANGER: Inhibition of human Daoy cell growth in a cell viability assay.

AU565 = test: cells; type: functional, cell-based, Homo sapiens; details: Homo sapiens, AU565;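 note: cell viability assay measuring growth inhibition of human AU565 cells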
Description: SANGER: Inhibition of human AU565 cell growth in a cell viability assay.

SCC-25 = test: cells; type: functional, cell-based, Homo sapiens; details: Homo sapiens, SCC-25;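 note: growth inhibition of SCC-25 cells, measured with a cell viability assay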
Description: SANGER: Inhibition of human SCC-25 cell growth in a cell viability assay.

LU-99A = test: cells; type: functional, cell-based, Homo sapiens; details: Homo sapiens, LU-99A;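 note: growth inhibition of LU-99A cells, read out with a cell viability assay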
Description: SANGER: Inhibition of human LU-99A cell growth in a cell viability assay.

RD = test: cells; type: functional, cell-based, Homo sapiens; details: Homo sapiens, RD
Description: SANGER: Inhibition of human RD cell growth in a cell viability assay.

With `COc1cc(N2CCN(C)CC2)ccc1Nc1ncc2c(n1)N(C)c1ccccc1C(=O)N2C` the IC50 (GDM-1) was > 8 µM, the IC50 (LU-165) was > 8 µM and the IC50 (BC1 cell line) was > 8 µM. For the same compound, the IC50 (NCI-H524) was > 8 µM, the IC50 (ARH-77) was > 8 µM and the IC50 (SCLC-21H) was > 8 µM. The IC50 (NCI-H345) was > 8 µM, the IC50 (SIG-M5) was 5.36 µM and the IC50 (RL95-2) was > 8 µM. For the same compound, the IC50 (L-540) was > 8 µM, the IC50 (RPMI-6666) was 7.86 µM and the IC50 (TE-15) was > 8 µM. The IC50 (NCI-H187) was > 8 µM, the IC50 (CMK) was 3.88 µM and the IC50 (BC-3) was > 8 µM.

`CC1(C)CNc2cc(NC(=O)c3cccnc3NCc3ccncc3)ccc21` [MOTESANIB] was tested, and the IC50 (A673) was > 2 µM, the IC50 (MKN-28) was > 2 µM and the IC50 (NCI-H460) was > 2 µM. For the same compound, the IC50 (M059J) was > 2 µM, the IC50 (EPLC-272H) was > 2 µM and the IC50 (CAL-12T) was > 2 µM. The IC50 (GCT) was > 2 µM, the IC50 (PANC-03-27) was > 2 µM and the IC50 (CAKI-1) was > 2 µM. The IC50 (NCI-H1793) was > 2 µM, the IC50 (BT-20) was > 2 µM and the IC50 (NCI-H650) was > 2 µM. The IC50 (C3A) was > 2 µM, the IC50 (OVCAR-5) was > 2 µM and the IC50 (SW626) was > 2 µM. For the same compound, the IC50 (SK-N-AS) was > 2 µM, the IC50 (U-251) was > 2 µM and the IC50 (DBTRG-05MG) was > 2 µM. The IC50 (NCI-H2030) was > 2 µM, the IC50 (EW-22) was > 2 µM and the IC50 (SW780) was > 2 µM. The IC50 (U2OS) was > 2 µM, the IC50 (LK-2) was > 2 µM and the IC50 (SW13) was > 2 µM. The IC50 (SJRH30) was > 2 µM, the IC50 (SKG-IIIa) was > 2 µM and the IC50 (T-24) was > 2 µM. For the same compound, the IC50 (KYSE-70 cell line) was > 2 µM, the IC50 (SW1088) was > 2 µM and the IC50 (Daoy) was > 2 µM. For the same compound, the IC50 (AU565) was > 2 µM, the IC50 (SCC-25) was > 2 µM and the IC50 (LU-99A) was > 2 µM. The IC50 (RD) was > 2 µM.

`CC(C)c1ccccc1Cc1cc(C(=O)Nc2ccc(S(=O)(=O)c3ccccc3C(C)(C)C)cc2)c(O)c(O)c1O` was tested, and the IC50 (A673) was 0.0538 µM, the IC50 (MKN-28) was 1.13 µM and the IC50 (NCI-H460) was 0.306 µM. For the same compound, the IC50 (M059J) was 1.3 µM, the IC50 (EPLC-272H) was 0.703 µM and the IC50 (CAL-12T) was 1.12 µM. The IC50 (GCT) was 0.191 µM, the IC50 (PANC-03-27) was 0.474 µM and the IC50 (CAKI-1) was 0.216 µM. It also gave an IC50 (NCI-H1793) of 0.745 µM, an IC50 (BT-20) of 0.656 µM and an IC50 (NCI-H650) of 0.646 µM. It also gave an IC50 (C3A) of 1.82 µM, an IC50 (OVCAR-5) of 0.576 µM and an IC50 (SW626) of 0.423 µM. It also gave an IC50 (SK-N-AS) of 0.181 µM, an IC50 (U-251) of 0.388 µM and an IC50 (DBTRG-05MG) of 1.46 µM. It also gave an IC50 (NCI-H2030) of 2.81 µM, an IC50 (EW-22) of 0.28 µM and an IC50 (SW780) of 5.8 µM. It also gave an IC50 (U2OS) of 0.552 µM, an IC50 (LK-2) of 1.5 µM and an IC50 (SW13) of 0.204 µM. The IC50 (SJRH30) was 0.137 µM, the IC50 (SKG-IIIa) was 0.576 µM and the IC50 (T-24) was 0.295 µM. For the same compound, the IC50 (KYSE-70 cell line) was 5.31 µM, the IC50 (SW1088) was 0.455 µM and the IC50 (Daoy) was 0.141 µM. For the same compound, the IC50 (AU565) was 0.353 µM, the IC50 (SCC-25) was 0.523 µM and the IC50 (LU-99A) was 0.274 µM. The IC50 (RD) was 0.96 µM.
